Experimental data from patent US10729768B2, “Combination of anti-CD20 antibody and PI3 kinase selective inhibitor” (TG Therapeutics, Inc., priority 2012, dated 2020).

Assays:
Assay type in all cases: cell-based
U266B1 cells = assay: cell cycle assay, flow cytometry
Daudi cells = assay: cell cycle assay, flow cytometry
[1] = system: U266B1, DB, Raji, and Daudi cells; assay: cell cycle assay, flow cytometry, cell-lines tested; conditions: 72 hrs
Procedure: A cell cycle assay reagent (Millipore) was used to determine the effect of S-isomer of a compound of formula A, UBX, and combinations thereof on the cell cycle in cancerous cells. In these experiments, cells were plated in a 6-well plate at a concentration of 0.5×10^6 cells/ml, treated with either S-isomer of a compound of formula A (10 μM to 0.1 μM), UBX (100 μg/ml to 0.1 μg/ml), or UBX with S-isomer of a compound of formula A at 1000 nM, and incubated for 72 hrs at 37° C. and 5% CO2. The cells were transferred to microfuge tubes to receive 50 μl of cell cycle reagent and incubated for 30 minutes at RT away from light. Cells were then diluted with 300-400 μl PBS, and a minimum of 10,000 events were acquired on a Guava® easyCyte™ flow cytometer. The data was analyzed with Express Pro software and the percentage of the cell population in different cell cycle stages with respect to control was presented in histograms.

B-cells = assay: cytotoxicity to B-cells; conditions: concentrations up to 10 μM
LY1 Cells = assay: in situ caspase-3 kit, caspase 3 activity and combination index (Example 5); conditions: LY1 cells, 24 hrs
Procedure: (§1) In order to determine the effect of S-isomer of a compound of formula A, UBX, and combinations thereof on apoptosis in cancer cells, an in situ caspase-3 kit (Millipore) was used. CELLS were plated in a 6 well plate at a concentration of 0.5×10^6 cells/ml, treated with either S-isomer of a compound of formula A (200-5000 nM), UBX (10,000 ng/ml to 10 ng/ml), or UBX with S-isomer of a compound of formula A (as indicated), and incubated for 24 hrs at 37° C. and 5% CO2. The cells were then transferred to microfuge tubes to receive 10 μl of freshly prepared FLICA™ reagent and incubated for 1 hour at 37° C. and 5% CO2 away from light. After extensive washes with wash buffer, test samples were adjusted to equalize the number of cells in PBS. 100 μl of each cell suspension was transferred to black 96-well plates in duplicates, and the fluorescence was read at an excitation wavelength of 490 nm and an emission wavelength of 520 nm in a plate reader. The fluorescence intensity for a DMSO control was subtracted from that of test compounds. Data was expressed as caspase-3 activity a combination index (C.I.) calculated.

Raji Cells = assay: as above; conditions: Raji cells, 24 hrs
Procedure: as §1

CD20+ cells = assay: LPS-induced proliferation in HWB, flow cytometry, CD20; conditions: Homo sapiens, 72 hrs
Procedure: In these experiments, 250 μl of diluted (1:3.5 with RPMI-HG Media) HWB sample was treated with either S-isomer of a compound of formula A (10 μM to 0.1 μM), UBX (100 μg/ml to 0.1 μg/ml) or UBX with S-isomer of a compound of formula A at 1000 nM for 15 minutes followed by 20 μg/ml LPS induction and incubated for 72 hrs at 37° C. and 5% CO2. 20 μl of treated sample was taken in a 1.5 ml centrifuge tube and labeled with CD20 FITC and CD19 PE antibody and incubated in the dark for 1 hour at RT. 1 ml of RBC lysing solution was added and tubes were centrifuged at 3000 rpm for 10 minutes. Supernatant was aspirated, and 250 μl of PBS was added to the pellet. Tubes were vortexed, and 5000 events were acquired on a Guava® easyCyte™ flow cytometer and analyzed with Incyte Software.
Gated population of lymphocytes positive cells were further analyzed for CD19 and CD20. Cells positive for CD19 and/or CD20 were calculated, and data were expressed as the percentage positive cells in the population. The loss of positive population from control with LPS induction was calculated and expressed as % inhibition with respect to control.

Q: Which results are given for CC(C)Oc1ccc(-c2nn([C@@H](C)c3oc4ccc(F)cc4c(=O)c3-c3cccc(F)c3)c3ncnc(N)c23)cc1F [S-isomer, (S)-2-(1-(4-amino-3-(3-fluoro-4-isopropoxyphenyl)-1H-pyrazolo[3,4-d]pyrimidin-1-yl)ethyl)-6-fluoro-3-(3-fluorophenyl)-4H-chromen-4-one]?
A: G0/G1, percentage of the cell population (U266B1 cells; 72 h, 0.1 nM): 59.26; G2/M, percentage of the cell population (U266B1 cells; 72 h, 0.1 nM): 30.71; S, percentage of the cell population (U266B1 cells; 72 h, 0.1 nM): 6.55; Sub G0, percentage of the cell population (U266B1 cells; 72 h, 0.1 nM): 2.75; G0/G1, percentage of the cell population (U266B1 cells; 72 h, 1 nM): 57.73; G2/M, percentage of the cell population (U266B1 cells; 72 h, 1 nM): 36.19; S, percentage of the cell population (U266B1 cells; 72 h, 1 nM): 4.87; Sub G0, percentage of the cell population (U266B1 cells; 72 h, 1 nM): 0.94; G0/G1, percentage of the cell population (U266B1 cells; 72 h, 10 nM): 55.33; G2/M, percentage of the cell population (U266B1 cells; 72 h, 10 nM): 39.28; S, percentage of the cell population (U266B1 cells; 72 h, 10 nM): 5.38; Sub G0, percentage of the cell population (U266B1 cells; 72 h, 10 nM): 0.76; G0/G1, percentage of the cell population (U266B1 cells; 72 h, 100 nM): 48.69; G2/M, percentage of the cell population (U266B1 cells; 72 h, 100 nM): 45.76; S, percentage of the cell population (U266B1 cells; 72 h, 100 nM): 5.49; Sub G0, percentage of the cell population (U266B1 cells; 72 h, 100 nM): 0.75; G0/G1, percentage of the cell population (U266B1 cells; 72 h, 1000 nM): 47.80; G2/M, percentage of the cell population (U266B1 cells; 72 h, 1000 nM): 47.13; S, percentage of the cell population (U266B1 cells; 72 h, 1000 nM): 4.69; Sub G0, percentage of the cell population (U266B1 cells; 72 h, 1000 nM): 0.88; G0/G1, percentage of the cell population (U266B1 cells; 72 h, 10,000 nM): 2.00; G2/M, percentage of the cell population (U266B1 cells; 72 h, 10,000 nM): 64.31; S, percentage of the cell population (U266B1 cells; 72 h, 10,000 nM): 0.94; Sub G0, percentage of the cell population (U266B1 cells; 72 h, 10,000 nM): 28.88; G0/G1, percentage of the cell population (Daudi cells; 72 h, 0.1 nM): 49.56; G2/M, percentage of the cell population (Daudi cells; 72 h, 0.1 nM): 33.23; S, percentage of the cell population (Daudi cells; 72 h, 0.1 nM): 14.13; Sub G0, percentage of the cell population (Daudi cells; 72 h, 0.1 nM): 0.34; G0/G1, percentage of the cell population (Daudi cells; 72 h, 1 nM): 48.11; G2/M, percentage of the cell population (Daudi cells; 72 h, 1 nM): 36.75; S, percentage of the cell population (Daudi cells; 72 h, 1 nM): 13.27; Sub G0, percentage of the cell population (Daudi cells; 72 h, 1 nM): 0.74; G0/G1, percentage of the cell population (Daudi cells; 72 h, 10 nM): 46.84; G2/M, percentage of the cell population (Daudi cells; 72 h, 10 nM): 37.79; S, percentage of the cell population (Daudi cells; 72 h, 10 nM): 12.55; Sub G0, percentage of the cell population (Daudi cells; 72 h, 10 nM): 1.68; G0/G1, percentage of the cell population (Daudi cells; 72 h, 100 nM): 47.39; G2/M, percentage of the cell population (Daudi cells; 72 h, 100 nM): 38.05; S, percentage of the cell population (Daudi cells; 72 h, 100 nM): 11.33; Sub G0, percentage of the cell population (Daudi cells; 72 h, 100 nM): 1.30; G0/G1, percentage of the cell population (Daudi cells; 72 h, 1000 nM): 48.27; G2/M, percentage of the cell population (Daudi cells; 72 h, 1000 nM): 40.10; S, percentage of the cell population (Daudi cells; 72 h, 1000 nM): 7.91; Sub G0, percentage of the cell population (Daudi cells; 72 h, 1000 nM): 2.22; G0/G1, percentage of the cell population (Daudi cells; 72 h, 10,000 nM): 2.53; G2/M, percentage of the cell population (Daudi cells; 72 h, 10,000 nM): 65.03; S, percentage of the cell population (Daudi cells; 72 h, 10,000 nM): 21.92; Sub G0, percentage of the cell population (Daudi cells; 72 h, 10,000 nM): 5.01; cell cycle effect [1]: dose-dependent G2/M arrest; cytotoxic to B-cells (B-cells): not cytotoxic; Caspase 3 Activity (LY1 Cells; S-isomer 200 nM): 0.06; Caspase 3 Activity (LY1 Cells; S-isomer 1000 nM): 0.17; Caspase 3 Activity (LY1 Cells; S-isomer 5000 nM): 0.61; Caspase 3 Activity (Raji Cells; S-isomer 200 nM): 0.36; Caspase 3 Activity (Raji Cells; S-isomer 1000 nM): 0.56; Caspase 3 Activity (Raji Cells; S-isomer 5000 nM): 0.80; inhibition at 1 µM (CD20+ cells): ~40%
